Test results reported in patent US20250302799A1, “PHARMACEUTICAL COMPOSITION CONTAINING FRAXETIN FOR PREVENTION OR TREATMENT OF ENDOMETRIOSIS” (Research & Business Foundation Sungkyunkwan University, priority 2024, published 2025).

Key:
Assay type in all cases: cell-based, human
End1/E6E7 cells [1] = experiment: Cell cycle analysis by flow cytometry (PI); details: End1/E6E7, 48 hours
Procedure: (§1) The inventors performed flow cytometry to examine the changes in the cell cycle of endometrial cells induced by fraxetin.
(§2) In brief, 5×10^3 cells of VK2/E6E7, End1/E6E7, and T-HESC were treated with fraxetin in a dose-dependent manner (0 μM, 5 μM, 10 μM, 20 μM, 50 μM, 100 μM) and incubated for 48 hours at 37° C. in a 5% CO2 incubator.
(§3) Afterward, cells were detached from the culture plates using trypsin, washed with 0.1% BSA/PBS, and fixed in 70% ethanol for 24 hours. The cells were then washed with 0.1% BSA/PBS, treated with RNase A (Sigma), and stained with PI. The stained solution transferred to FACS tubes, and fluorescence intensity and cell cycle were analyzed using a flow cytometer.

VK2/E6E7 cells [2] = experiment: Cell cycle analysis by flow cytometry (PI); details: VK2/E6E7, 48 hours
Procedure: as §1, §2, §3

End1/E6E7 cells [3] = experiment: Mitochondrial membrane potential by JC-1 staining; details: End1/E6E7
Procedure: To examine changes in mitochondrial membrane potential (MMP) in endometrial cells induced by fraxetin, the inventors used a mitochondria staining kit (Cat no: CS0390, Sigma-Aldrich) to measure MMP.
In brief, End1/E6E7 and […] endometrial cell lines were cultured in 6-well plates, treated with fraxetin in a dose-dependent manner (0 μM, 5 μM, 10 μM, 20 μM, 50 μM, 100 μM), and incubated at 37° C. in a 5% CO2 incubator for 48 hours. Afterward, the cells were detached using trypsin, centrifuged to obtain cell pellets, resuspended in JC-1 staining solution, and incubated at 37° C. in a 5% CO2 incubator for 20 minutes. The stained cells were centrifuged again, washed with 1X JC-1 staining buffer, and analyzed using flow cytometry to assess changes in mitochondrial membrane potential.

End1/E6E7 cells [4] = experiment: Mitochondrial respiration (XF Cell Mitostress kit)
Procedure: (§4) To confirm the effects of fraxetin on mitochondrial respiration in endometrial cells, the inventors used an XF Cell Mitostress kit.
(§5) In brief, endometrial cells were seeded in 24-well plates and cultured at 37° C. in a 5% CO2 incubator for 16 hours, followed by treatment with […]. Subsequently, various mitochondrial respiration parameters were measured by sequential treatment with oligomycin, FCCP, rotenone, and antimycin A in the two cell lines.

VK2/E6E7 cells [5] = experiment: Mitochondrial respiration (XF Cell Mitostress kit)
Procedure: as §4, §5

End1/E6E7 cells [6] = experiment: ROS generation by DCFH-DA flow cytometry
Procedure: (§6) To assess the inhibitory effect of fraxetin on ROS generation in endometrial cells, the inventors used flow cytometry to measure ROS levels. In brief, endometriosis cells were stained with DCFH-DA (final concentration 10 μM) for 30 minutes and treated with 50 μM fraxetin in experimental groups, with or without 2 mM N-acetylcysteine (NAC; Cat No. A0737, Sigma), in a 37° C. incubator. Afterward, the cells were washed with PBS, and ROS levels were detected by measuring fluorescence DCF via flow cytometry.

VK2/E6E7 cells [7] = experiment: ROS generation by DCFH-DA flow cytometry
Procedure: as §6

End1/E6E7 cells [8] = experiment: Apoptosis by Annexin V and propidium iodide staining
Procedure: (§7) To assess the apoptosis-inducing effect of fraxetin in endometrial cells, the inventors used a FITC Annexin V Apoptosis Detection Kit I (BD Sciences).
(§8) First, VK2/E6E7 and End1/E6E7 cells were cultured in 6-well plates, treated with fraxetin in a dose-dependent manner (0 μM, […], 10 μM, 20 µM, 50 μM, 100 μM), and incubated for 48 hours at 37° C. in a 5% CO2 incubator. The cells were then detached using trypsin, washed with PBS, and mixed slowly with 1 mL of 1X binding buffer. After centrifugation, the cell pellet was resuspended in 200 μL of 1X binding buffer. The suspension (100 μL) was transferred to a 1.5 mL brown tube, and 5 μL of Annexin V and PI (propidium iodide) were added, followed by staining at room temperature for 15 minutes. After adding 400 μL of 1X binding buffer, the stained solution was transferred to a 5 mL FACS tube, and the number of apoptotic cells was measured by analyzing fluorescence intensity using flow cytometry.

VK2/E6E7 cells [9] = experiment: as above
Procedure: as §7, §8

endometrial cells [10] = experiment: tiRNA expression by real-time PCR (cell line not stated); details: following fraxetin treatment
Procedure: To confirm the expression of tiRNA (tRNA-derived stress-induced RNAs) associated with the development of endometriosis, the inventors conducted real-time PCR.
First, information on candidate tiRNA sequences and mature tRNA sources was obtained from MINTbase (https://cm.jefferson.edu/MINTbase/). miRNA CDNA synthesis was performed using a cDNA kit (Agilent Technologies) to confirm tiRNA expression, with U6 snRNA used for normalization. For transfection of the tiRNA^His GTG inhibitor (5′-AACCGAGAGUACUAACCACUAUACGAUCACCGC-3′) (40 nM), Lipofectamine 2000 was used in Opti-MEM.

endometrial cells [11] = experiment: Western blot analysis (cell line not stated)
Procedure: To analyze protein expression related to the development of endometriosis following fraxetin treatment, the inventors conducted western blot analysis.
Briefly, endometrial cells were treated with fraxetin in a dose-dependent manner or in combination with signaling pathway inhibitors. Total proteins were extracted from the treated cells, and protein quantification was performed using the Bradford protein assay (Bio-Rad, Hercules, CA, USA). The extracted proteins were then denatured at 95° C. for 5 minutes and subjected to electrophoresis on a 10% SDS/PAGE gel before being transferred to a nitrocellulose membrane. The membrane was subsequently incubated with primary and secondary antibodies, and target protein expression was analyzed using chemiluminescence detection reagents (Supersignal West Pico, Pierce, Rockford, IL, USA) with the ChemiDoc EQ system and Quantity One software (Bio-Rad).

[12] = End1/E6E7, Example 7 comparison fraxetin vs dienogest
[13] = VK2/E6E7, Example 7 comparison fraxetin vs dienogest

**Q.** With `COc1cc2ccc(=O)oc2c(O)c1O` [fraxetin] as the molecule, how does the “number of cells in the Sub-G1 phase” value (End1/E6E7 cells [1]) read?
**A.** increase

**Q.** What about the “number of cells in the Sub-G1 phase” value (VK2/E6E7 cells [2]) of the same molecule?
**A.** increase

**Q.** What about the “relative membrane potential loss rate increase” value (End1/E6E7 cells [3]) of the same molecule?
**A.** 1.8 fold

**Q.** What about the ATP production (End1/E6E7 cells [4]) of the same molecule?
**A.** significantly decreased

**Q.** And the basal respiration (End1/E6E7 cells [4])?
**A.** significantly decreased

**Q.** And the maximal respiration (End1/E6E7 cells [4])?
**A.** significantly decreased

**Q.** What about the “reserve respiratory capacity compared to control” value (End1/E6E7 cells [4]) of the same molecule?
**A.** halved

**Q.** And the ATP production (VK2/E6E7 cells [5])?
**A.** decreased

**Q.** What about the basal respiration (VK2/E6E7 cells [5]) of the same molecule?
**A.** decreased

**Q.** What about the “relative ROS generation” value (End1/E6E7 cells [6]; [12]) of the same molecule?
**A.** over 150%

**Q.** What about the “ROS generation compared to control” value (End1/E6E7 cells [6]; End1/E6E7, fraxetin-treated) of the same molecule?
**A.** up to 1.5 fold

**Q.** What about the “relative ROS generation” value (VK2/E6E7 cells [7]; [13]) of the same molecule?
**A.** > 200%

**Q.** What about the “ROS generation compared to control” value (VK2/E6E7 cells [7]; VK2/E6E7, fraxetin-treated) of the same molecule?
**A.** up to 1.5 fold

**Q.** What about the “early and late apoptosis cell populations” value (End1/E6E7 cells [8]; End1/E6E7, Example 6) of the same molecule?
**A.** tended to increase

**Q.** And the “early and late apoptosis” value (End1/E6E7 cells [8]; [12])?
**A.** induced both early and late apoptosis

**Q.** What about the “early and late apoptosis cell populations” value (VK2/E6E7 cells [9]; VK2/E6E7, Example 6) of the same molecule?
**A.** tended to increase

**Q.** And the “early and late apoptosis” value (VK2/E6E7 cells [9]; [13])?
**A.** induced both early and late apoptosis

**Q.** What about the “mRNA expression of tiRNA^GlyCCC, tiRNA^ValCAC, tiRNA^AspGTC and tiRNA^GluCTC” value (endometrial cells [10]) of the same molecule?
**A.** minimal change

**Q.** What about the “tiRNA^HisGTG expression” value (endometrial cells [10]) of the same molecule?
**A.** increased by more than twofold

**Q.** What about the “level of GRP78 compared to control” value (endometrial cells [11]; 20 μM and 50 μM fraxetin) of the same molecule?
**A.** 1.9 fold

**Q.** What about the “JNK phosphorylation (remaining)” value (endometrial cells [11]; 50 μM fraxetin) of the same molecule?
**A.** below 50%

**Q.** What about the eIF2α phosphorylation (endometrial cells [11]; fraxetin-treated) of the same molecule?
**A.** tended to increase
